Results published in patent publication US12534748B2, “Engineered beta-subunit of tryptophan synthase for production of non-canonical amino acids” (California Institute of Technology, priority 2015, dated 2026).

Assays:
[1] = system: Thermococcus kodakarensis TrpB, wild type (literature); details: cited from earlier work
[2] = molecular target: T1, Archaeoglobus fulgidus TrpB variant AfTrpB^0B2 (P25L, E30G, I80V, F285S, T303S, T332A), SEQ ID NO: 22 (Archaeoglobus fulgidus, UniProt O28672, I80V/L285S/P25L/P30G/T303S/T332A); assay: Tryptophan formation from L-serine and indole, kinetics of AfTrpB^0B2
T1 sequence (O28672 with tags, fused parts or gaps P25L/P30G/I80V/L285S/T303S/T332A): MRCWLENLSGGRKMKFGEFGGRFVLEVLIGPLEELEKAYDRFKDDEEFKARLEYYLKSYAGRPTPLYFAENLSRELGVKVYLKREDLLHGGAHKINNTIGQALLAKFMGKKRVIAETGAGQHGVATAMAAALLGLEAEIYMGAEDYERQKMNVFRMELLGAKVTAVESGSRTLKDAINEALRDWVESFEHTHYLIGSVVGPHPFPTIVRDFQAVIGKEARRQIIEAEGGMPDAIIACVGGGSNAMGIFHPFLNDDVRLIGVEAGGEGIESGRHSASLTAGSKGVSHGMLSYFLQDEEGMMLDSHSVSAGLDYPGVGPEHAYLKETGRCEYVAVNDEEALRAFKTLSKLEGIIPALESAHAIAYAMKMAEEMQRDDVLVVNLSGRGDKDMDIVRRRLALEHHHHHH

[3] = molecular target: T2, Thermotoga maritima TrpB variant TmTrpB^T292S, SEQ ID NO: 26 (Thermotoga maritima, UniProt P50909, T292S); assay: Tryptophan formation from L-serine and indole, kinetics of TmTrpB^T292S; format: biochemical
T2 sequence (P50909 with tags, fused parts or gaps T292S): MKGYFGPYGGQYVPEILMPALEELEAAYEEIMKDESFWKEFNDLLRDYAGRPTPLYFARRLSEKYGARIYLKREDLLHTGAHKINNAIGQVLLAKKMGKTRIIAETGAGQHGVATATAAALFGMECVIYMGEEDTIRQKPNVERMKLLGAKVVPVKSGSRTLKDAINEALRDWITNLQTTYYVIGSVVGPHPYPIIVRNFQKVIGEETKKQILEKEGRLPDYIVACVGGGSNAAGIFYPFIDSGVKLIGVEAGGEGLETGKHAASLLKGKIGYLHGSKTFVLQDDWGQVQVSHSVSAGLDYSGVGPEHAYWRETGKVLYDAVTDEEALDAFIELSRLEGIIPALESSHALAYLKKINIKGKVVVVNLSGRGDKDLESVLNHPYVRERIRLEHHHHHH
Protocol: Kinetics and UV-Vis Spectroscopy. Data were collected between 550 and 250 nm on a UV1800 Shimadzu spectrophotometer (Shimadzu) using 0.25-20 μM of enzyme in 200 mM potassium phosphate (pH 8.0) in a quartz cuvette. Samples were incubated at 75° C. for >3 min to ensure a stable temperature was reached. PfTrpB activity (kcat) was measured by monitoring tryptophan formation at 290 nm using Δe290=1.89 mM^−1·cm^−1.
Cloning, expression, and purification of the different orthologs. The genes encoding AfTrpB (UNIPROT ID O28672), TmTrpB (UNIPROT ID P50909) and EcTrpB (UNIPROT ID P0A879) were obtained from IDT and cloned into pET22(b)+ using Gibson Assembly. Protein expression was carried out in E. coli BL21 E. cloni Express cells (Lucigen) by inoculating 10-mL Terrific Broth (with 100 μg/mL ampicillin (TBamp)) with a single colony and incubated over night at 37° C. and 250 rpm. These overnight cultures were used to scale up to 500-mL TBamp expression cultures, which were grown by shaking at 250 rpm and 37° C. for ˜3 h or until an OD600 of 0.8 was reached. Then, after chilling the cultures on ice for 20 min, induction was conducted by the addition of IPTG to a final concentration of 1 mM. Induced cultures were allowed to grow at 250 rpm and 20° C. for another 20 h. After centrifugation, pelleted cells were frozen and stored at −20° C. until further use. For protein purification, thawed cells were resuspended in 50 mM potassium phosphate buffer (KPi, pH 8, 20 mM imidazole and 100 mM NaCl (buffer A)), with 200 μM PLP. Lysis was performed by adding BugBuster (Novagen) and incubating for 15 min at 37° C. Once cells were lysed, they were centrifuged to obtain the soluble protein-rich fraction. In the case of TmTrpB (but not for AfTrpB or EcTrpB), the lysate was then incubated at 75° C. for 20 min and was subjected to another centrifugation step. […]
The next homolog, TmTrpB, was examined. […] The variants without the T292S mutation lacked this probative absorbance peak, but the decrease at 428 nm and concomitant increase at 350 nm are consistent with a similar, though less pronounced activation.

c1ccc2[nH]ccc2c1 [indole]
kcat [1]: 1.04 ± 0.03 s⁻¹
Km ([1]; read-out: KM indole): 63 ± 5 µM
kcat ([2]; 60° C.): 0.51 s⁻¹
increase in kcat ([2]; compared to wild type): 7 fold
kcat ([3]; 75° C.): 5.8 s⁻¹
increase in kcat more than TmTrpA binding ([3]; relative to TmTrpA binding (TmTrpS)): 3 fold
increase in kcat ([3]; with respect to wild type): 4 fold
